Test results from article PMC11301932 (Fluids and Barriers of the CNS, 2024).
Like-named read-outs stand apart in the source and are kept apart here. Each block holds one compound with its values, some of them ahead of it.

Tests used:
[1] = tested on: ABCB1; conditions: humans, cited from earlier work
[2] = cited from earlier work
[3] = biological target: Abcb1a/b (Mus musculus, UniProt P21447); assay: Inhibition of efflux of substrate drugs from the brain of Abcg2 KO mice; assay type: in vivo
[4] = Plasma concentration at the end of the 3 h i.p. infusion; assay type: in vivo; conditions: male, FVB, mouse, ip
[5] = standard procedure using buffer in the receiver compartment; ref [24], [33]; cited from earlier work
[6] = Rapid equilibrium dialysis; assay type: in vitro ADME
[7] = biological target: T1, human ABCG2/BCRP (Homo sapiens, UniProt Q9UNQ0); assay: Drug accumulation assay in MDCKII-BCRP cells with 8-drug mixture plus inhibitor; conditions: in vitro, MDCKII-BCRP vs MDCK-MDR1
T1 sequence (Q9UNQ0 1-655): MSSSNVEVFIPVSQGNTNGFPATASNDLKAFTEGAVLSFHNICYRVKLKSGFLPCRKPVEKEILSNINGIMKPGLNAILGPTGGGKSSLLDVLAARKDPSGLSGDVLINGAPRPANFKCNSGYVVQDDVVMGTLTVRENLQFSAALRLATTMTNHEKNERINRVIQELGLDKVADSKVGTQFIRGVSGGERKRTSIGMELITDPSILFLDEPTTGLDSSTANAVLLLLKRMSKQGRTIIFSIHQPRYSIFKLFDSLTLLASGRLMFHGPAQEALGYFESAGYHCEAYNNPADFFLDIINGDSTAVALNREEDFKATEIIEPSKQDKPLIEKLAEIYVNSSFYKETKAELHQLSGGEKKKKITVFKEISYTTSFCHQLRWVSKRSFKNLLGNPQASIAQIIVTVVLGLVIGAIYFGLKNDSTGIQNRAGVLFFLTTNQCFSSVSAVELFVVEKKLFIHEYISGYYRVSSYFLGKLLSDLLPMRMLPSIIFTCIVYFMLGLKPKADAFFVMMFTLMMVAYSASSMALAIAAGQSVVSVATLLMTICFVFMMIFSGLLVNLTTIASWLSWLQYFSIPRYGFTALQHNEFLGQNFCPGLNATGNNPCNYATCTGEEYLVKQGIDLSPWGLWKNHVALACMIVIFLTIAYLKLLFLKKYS

[8] = biological target: T2, Abcg2 (Mus musculus, UniProt Q7TMS5); assay: Inhibition of efflux of substrate drugs from the brain of Abcb1a/b KO mice; assay type: in vivo
T2 sequence (Q7TMS5 1-657): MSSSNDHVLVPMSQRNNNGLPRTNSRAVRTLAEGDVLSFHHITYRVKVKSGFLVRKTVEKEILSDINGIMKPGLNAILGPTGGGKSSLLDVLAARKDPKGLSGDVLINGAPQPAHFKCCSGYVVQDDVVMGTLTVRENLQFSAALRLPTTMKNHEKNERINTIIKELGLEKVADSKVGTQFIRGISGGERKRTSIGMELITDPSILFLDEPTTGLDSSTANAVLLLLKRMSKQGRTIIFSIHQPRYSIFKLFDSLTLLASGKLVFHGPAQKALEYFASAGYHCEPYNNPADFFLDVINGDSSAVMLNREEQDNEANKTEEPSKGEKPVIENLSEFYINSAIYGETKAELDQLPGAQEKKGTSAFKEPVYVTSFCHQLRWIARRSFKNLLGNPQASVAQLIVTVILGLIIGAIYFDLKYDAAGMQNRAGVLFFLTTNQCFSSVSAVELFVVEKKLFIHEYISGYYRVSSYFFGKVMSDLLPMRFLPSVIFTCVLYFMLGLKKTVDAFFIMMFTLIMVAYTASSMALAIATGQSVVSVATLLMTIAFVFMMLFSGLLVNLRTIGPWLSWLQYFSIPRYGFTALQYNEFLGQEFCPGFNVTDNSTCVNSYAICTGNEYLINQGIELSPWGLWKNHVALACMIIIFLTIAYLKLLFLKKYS

[9] = tested on: Abcb1a/b and Abcg2; assay: Inhibition of efflux of substrate drugs from the brain of WT mice; conditions: mouse, in vivo
[10] = Brain penetration; conditions: WT mice, ABC transporter mediated efflux present, no inhibitor
[11] = cited from earlier work; remark: listed apart in the source

Abcb1a/b, sequence (P21447 whole entry, the tested form may be a part): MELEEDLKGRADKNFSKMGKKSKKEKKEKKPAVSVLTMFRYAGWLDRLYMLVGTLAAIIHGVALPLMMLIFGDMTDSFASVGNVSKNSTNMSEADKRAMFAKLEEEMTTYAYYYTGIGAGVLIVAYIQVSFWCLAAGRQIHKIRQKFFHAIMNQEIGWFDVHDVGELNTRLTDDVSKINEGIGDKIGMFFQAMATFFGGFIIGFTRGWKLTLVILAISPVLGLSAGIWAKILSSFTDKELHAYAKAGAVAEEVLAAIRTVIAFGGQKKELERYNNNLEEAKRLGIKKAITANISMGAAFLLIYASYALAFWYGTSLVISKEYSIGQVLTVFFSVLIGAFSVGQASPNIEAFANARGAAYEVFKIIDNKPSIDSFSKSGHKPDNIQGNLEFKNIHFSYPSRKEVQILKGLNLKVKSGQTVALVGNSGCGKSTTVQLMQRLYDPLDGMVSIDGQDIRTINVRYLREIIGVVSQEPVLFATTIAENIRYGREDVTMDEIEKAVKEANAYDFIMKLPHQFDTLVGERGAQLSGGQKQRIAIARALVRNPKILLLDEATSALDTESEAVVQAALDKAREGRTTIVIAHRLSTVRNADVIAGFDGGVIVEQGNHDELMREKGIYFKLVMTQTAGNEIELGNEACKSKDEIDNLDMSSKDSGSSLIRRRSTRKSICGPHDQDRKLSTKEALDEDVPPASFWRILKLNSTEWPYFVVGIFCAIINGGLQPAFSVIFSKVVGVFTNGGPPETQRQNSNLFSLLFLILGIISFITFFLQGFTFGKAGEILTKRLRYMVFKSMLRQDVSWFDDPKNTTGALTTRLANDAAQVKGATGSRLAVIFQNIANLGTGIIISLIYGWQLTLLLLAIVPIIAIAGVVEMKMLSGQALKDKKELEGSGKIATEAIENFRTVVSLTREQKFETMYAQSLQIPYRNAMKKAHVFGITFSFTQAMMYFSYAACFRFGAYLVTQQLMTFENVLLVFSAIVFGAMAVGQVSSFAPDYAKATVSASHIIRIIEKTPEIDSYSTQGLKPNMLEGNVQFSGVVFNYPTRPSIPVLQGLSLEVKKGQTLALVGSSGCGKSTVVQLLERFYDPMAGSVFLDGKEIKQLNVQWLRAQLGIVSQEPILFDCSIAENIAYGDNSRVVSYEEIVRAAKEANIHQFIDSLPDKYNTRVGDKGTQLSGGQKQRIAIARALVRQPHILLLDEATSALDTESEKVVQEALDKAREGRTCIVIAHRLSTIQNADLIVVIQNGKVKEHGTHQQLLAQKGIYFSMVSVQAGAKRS

Inhibitor plasma level for (near) complete inhibition of ABCB1 at the BBB [3]: at least 4000 nM
Plasma level above which own B/P ratio starts to increase [3]: above 4000 nM
Tariquidar plasma level required for near complete ABCB1 inhibition ([3]; for loperamide and afatinib): ≥ 6 µM
Tariquidar plasma level required for near complete ABCB1 inhibition ([3]; for verapamil and erlotinib): at least 4000 nM
concentration at 3 h ([4]; 10.5 mg/kg/h): > 6000 nM
Fraction retrieved in the receiver chamber ([6]; RED, undiluted human or mouse plasma to human plasma, after 24 h of incubation): 2–3%
Fold higher IC50 for ABCG2 than for ABCB1 [7]: about 10 fold
Change of own B/P ratio with plasma concentration ([8]; Abcb1a/b KO and WT mice (Abcg2 proficient)): did not increase
SMILES: COc1cc2c(cc1OC)CN(CCc1ccc(NC(=O)c3cc(OC)c(OC)cc3NC(=O)c3cnc4ccccc4c3)cc1)CC2 [Tariquidar]
Fold increase of VT, brain of [11C]verapamil ([1]; tariquidar 4–8 mg/kg, infusion 1.5–2.5 h, ref [19], [35]): 3.5 fold
Fold increased brain radioactivity of [11C]verapamil ([1]; tariquidar 2 mg/kg, 30 min i.v. infusion, ref [41]): ≤ 2 fold
Plasma level at the end of the infusion ([2]; humans, tariquidar 4–8 mg/kg i.v., 1.5–2.5 h, ref [19], [35]): 3000 to 4000 nM
Oral bioavailability ([2]; oral dosing in humans, ref [20]): very low
Free fraction [5]: below 0.01
Plasma protein binding, mouse versus human plasma ([6]; RED competition setup): very high but similar in mouse and human plasma
Enhancement of brain accumulation of ABCG2-substrate drugs ([8]; Abcb1a/b KO mice): none of the ABCG2-substrate drugs exhibit significant enhancement

Elacridar plasma level for maximum inhibition of efflux ([8]; Abcb1a/b KO mice, palbociclib, dasatinib and erlotinib (Class II)): above 1200 nM
Plasma level at which inhibitor inhibits its own ABCG2-mediated efflux ([8]; brain efflux in mice): about 1200 nM
SMILES: COc1cc2c(cc1OC)CN(CCc1ccc(NC(=O)c3cccc4c(=O)c5cccc(OC)c5[nH]c34)cc1)CC2 [Elacridar, 9,10-dihydro-5-methoxy-9-oxo-N-[4-[2-(1,2,3,4-tetrahydro-6,7-dimethoxy-2-isoquinolinyl)ethyl]phenyl]-4-acridine-carboxamide]
Free fraction [5]: below 0.01
Proposed target plasma level to enhance brain entry [9]: 1200 nM and about 700 ng/ml

concentration at 3 h [4]: 100 to 250 nM
SMILES: C#Cc1cccc(Nc2ncnc3cc(OCCOC)c(OCCOC)cc23)c1 [Erlotinib]

concentration at 3 h [4]: 100 to 250 nM
B/P ratio [10]: 0.02
SMILES: CCCS(=O)(=O)Nc1ccc(F)c(C(=O)c2c[nH]c3ncc(-c4ccc(Cl)cc4)cc23)c1F [Vemurafenib]

SMILES: CNC(=O)c1cc(Oc2ccc(NC(=O)Nc3ccc(Cl)c(C(F)(F)F)c3)cc2)ccn1 [Sorafenib]
Fold higher brain uptake in Abcg2;Abcb1a/b KO vs WT mice ([11]; LC-MS/MS on brain homogenates, ref [39]): 9.3 fold

SMILES: CNC(=O)c1cc(Oc2ccc(N[11C](=O)Nc3ccc(Cl)c(C(F)(F)F)c3)cc2)ccn1 [[^11C]sorafenib]
Fold higher brain uptake in Abcg2;Abcb1a/b KO vs WT mice ([11]; PET, ref [38]): 3 fold

concentration at 3 h [4]: 100 to 250 nM
SMILES: COc1ccc(CCN(C)CCCC(C#N)(c2ccc(OC)c(OC)c2)C(C)C)cc1OC (stereo not shown) [Verapamil]
